Square brackets hold non-standard residues; d marks the D form. Peptide text beside a SMILES is read from it. Dmt = Cc1cc(O)cc(C)c1C[C@H](N)C(=O)O
Key:
[1] = test system: Male CD1 mice; assay: Radiant heat tail-flick test of biogel compositions s.c. (in solution or as a gel); format: in vivo, mouse; conditions: injection volume of 150 μl
Description: Male CD1 mice (6-8 weeks old, body weight average 30 g) were obtained from Charles River (Sulzfeld, Germany). Mice were group-housed in a temperature controlled room with a 12 h light/dark cycle and with free access to food and water. All animal studies were conducted in accordance with ethical guidelines and animal welfare standards according to Austrian regulations for animal research, and were approved by the Committee of Animal Care of the Austrian Federal Ministry of Science and Research. […]
The radiant heat tail-flick test was used to assess antinociceptive effects of tested drugs after s.c. administration in mice using an UB 37360 Ugo Basile analgesiometer (Ugo Basile s.r.l., Varese, Italy) as described previously (A. Novoa et al., 2012). The reaction time required by the mouse to remove its tail due to the radiant heat was measured and defined as the tail-flick latency. […] The antinociceptive response was expressed as percent of Maximum Possible Effect (% MPE)=[(TL-BL)/(cut-off time-BL)]×100. Data were analyzed with ANOVA using Tukey's multiple comparison test, and graphically processed with the GraphPad Prism Software (GraphPad Software Inc., San Diego, CA). […]

[2] = Stability and degradability of biogels in human plasma (Example 8); format: in vitro ADME; conditions: human plasma, 37° C.
Description: After centrifugation at 14 000 rpm for 15 minutes, 100 μL supernatant was diluted with 100 μL milliQ water in the injection vial. Injection samples were vortexed for 5 seconds and were analyzed by HPLC. […] Calculations were performed using Microsoft® Office Professional 2010 Excel.

[3] = TEM / cryo-TEM fibre morphology of hydrogels; format: physicochemical
Description: Formvar carbon-coated 400-mesh copper grids (Agar Scientific, Stansted, United Kingdom) were treated with plasma using an ELMO Glow discharge system to clean the grid surface and to render the carbon surface hydrophilic. Hydrogel samples were prepared 12 h in advance as described above. Small aliquots of sample (5 μL) were pipetted onto the carbon grids for adsorption. After 30 s, excess of sample was removed by using a Whatman 541 filter paper. The loaded grids were stained during 10 s with 1% uranyl formate after which the grids were air-dried. Samples were analysed using a JEOL JEM-1400 transmission electron microscope, operating at accelerating voltage of 120 kV. Images were recorded on a CMOS TemCam-F416 camera and accessory software of TVIPS.
200-mesh copper grids coated with perforated carbon film (Lacey carbon film: ProSci-Tech Old, Australia) were used and were glow discharged in nitrogen for 5 s immediately prior to use. Hydrogel samples were prepared 12 h in advance as described above. Small aliquots of sample (4 μL) were pipetted onto the carbon grids for adsorption. After 30 s, excess of sample was removed by using a Whatman 541 filter paper. The grid was then plunged into liquid ethane cooled by liquid nitrogen. Frozen grids were stored in liquid nitrogen until required. Samples were analysed using a Gatan 626 cryoholder and Tecnai 12 Transmission electron microscope, operating at accelerating voltage of 120 kV. Images were recorded using an FEI Eagle 4k×4k CCD camera.

[4] = after 4 days of incubation
Description: Human plasma was obtained from the Belgian Red Cross (Vlaams-Brabant, Leuven). […] Frozen (−20° C.) human plasma samples were thawed and thermostated to 37+2° C. Dissolution of the lyophilized peptide and consecutive dilutions were performed in water. […] On every time point 100 μL spiked plasma was transferred to a 500 μL Eppendorf tube and a protein crash was performed using 300 μL methanol+0.1% TFA (4° C.). Suspensions were vortexed for 15 seconds and placed at 4° C. for 30 to 45 minutes. After centrifugation at 14000 rpm for 20 minutes, 100 μL supernatant was diluted with 100 μL water in the injection vial. Injection samples were vortexed for 5 seconds and placed in the autosampler. […] Concentrations were calculated by use of the calibration curve and transferred to a semi-log chart presenting the log concentrations as a function of time. The optimum curve was used to calculate the peptide-half life. Calculations were performed using Microsoft® Office Professional 2010 Excel.

[5] = Peptide gelation (tilted tube / inverted vial test, minimum gelation concentration); format: physicochemical; conditions: for Minimum gelation concentration: PBS 10 mM; for Minimum gelation concentration (w/v % in PBS): '/' = no gel
Outline: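 TFA salt of peptide dissolved (1 or 2 mg per 100 μL) in PBS pH 7.4 or 0.9% NaCl saline, vortexed and sonicated, then left overnight at room temperature. Gelation judged by inverted vial test: no gravitational flow means gel. Rheology by dynamic rheometry at 37° C (G′, G″, tan δ).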

[6] = Dynamic rheometry of hydrogels (storage modulus G′); format: physicochemical; conditions: 2% w/v in PBS, 37° C., value at 1 Hz
Description: Dynamic rheometry measurements were performed on an AR-G2 rheometer (TA Instruments) equipped with electrically heated plates and a 10 mm-diameter aluminium parallel plate-plate geometry. Viscoelastic properties were measured by oscillatory frequency sweeps at 37° C. in the range between 0.01 and 10 Hz, using a controlled strain of 0.05%. Hydrogel samples were made 12 h in advance. A ring-shaped reservoir filled with a saturated NH4Cl solution was used as a solvent trap.
To evaluate the mechanical properties of these hydrogels in a more quantitative manner, rheological experiments were performed. The viscoelastic properties of the peptide hydrogels were measured by dynamic rheometry at 37° C. This technique allowed to measure the storage modulus G′ (corresponding to the material's stiffness or rigidity), loss modulus G″ (corresponding to the viscous properties of the material) and loss factor tan (o) (ratio of G″ over G′).

[7] = test system: L929 (mouse fibroblast) cells; assay: Live/Dead cell viability assay on hydrogels (Example 5); format: cell-based; conditions: 24 h on hydrogel
Description: L929 (mouse fibroblast) cells were obtained from ATCC® and maintained in Gibco®, MEM with GlutaMAX supplemented with 10% FBS (SAFC, Sigma), 1% Anti-Anti (100×, Gibco®) and 1% NEAA (100×, Gibco®). Cells were maintained on tissue culture treated polystyrene (TCPS) plates at 37° C. in a humified atmosphere containing 5% CO2 and 95% air. Cells were trypsinized, harvested and counted using a hemocytometer. The resulting cell suspension was diluted in Gibco® solution before addition to the hydrogels. For ease of handling and to produce homogeneous clear hydrogels, 100 μL of peptide hydrogels were prepared (in corresponding gelation conditions, see above) in Eppendorf tubes (0.5 ml) and transported using a 21G syringe to 96-well plates after simultaneously heating (60° C.) and mixing (900 rpm) using an Eppendorf ThermoMixer®. The hydrogels were left to set overnight in the wells at room temperature and were subsequently washed twice with 200 μL of Anti-Anti (100×, Gibco®) solution, 2 h each. After washing, media was removed and cells were seeded evenly over hydrogels. Cells were plated in duplicate on all hydrogels and control wells. Viability of cells on hydrogels was determined using the traditional Live/dead cell viability assay (Invitrogen) after culture durations of 24 h.
Plates were incubated in 5% CO2 at 37° C. for 1 day to allow cell attachment and spreading to occur. […]

[8] = 37° C., 9 μM
Description: Human plasma was obtained from the Belgian Red Cross (Vlaams-Brabant, Leuven). Prior to the stability test, selectivity, stability of the compound in the injection solvent, linearity, accuracy and precision of the method were investigated. Frozen (−20° C.) human plasma samples were thawed and thermostated to 37±2° C. Dissolution of the lyophilized peptide and consecutive dilutions were performed in water. The resulting aqueous solutions of each peptide individually was spiked in human plasma (10:90 v/v) with final plasma concentrations of 9 μM.
On every time point 100 μL spiked plasma was transferred to a 500 μL Eppendorf tube and a protein crash was performed using the corresponding precipitation solvent (4° C.). Suspensions were vortexed for 15 s and placed at 4° C. for 30 to 45 min. After centrifugation at 18 625 g for 20 min, 100 μL supernatant was diluted with 100 μL water in the injection vial.
Injection samples were vortexed for 5 sand placed in the autosampler. […] Concentrations were calculated by use of the calibration curve and transferred to a semi-log chart presenting the log concentrations as a function of time. The optimum curve was used to calculate the peptide half-life. Calculations were performed using Microsoft® Office Professional 2010 Excel.

| SMILES | Release profile as biogel in tail-flick test [1] | Time at which degradation of the heptapeptide into the N-terminal pentapeptide started [2] [min] | Time at which degradation of the pentapeptide into tripeptide was observed [2] [min] | Time of appearance of the heptapeptide (loss of Phe-Lys-NH2) [2] [min] | half-life at 14 μM ([2]; human, in solution, 14 μM) [min] | Fibre thickness ([3]; TEM, Example 2) | Stability after incubation with human plasma [4] | Minimum gelation concentration ([5]; pH 7.4) [mM] | Minimum gelation concentration ([5]; pH 7.4 (text, Examples 1-2)) [% w/v] | Minimum gelation concentration (w/v % in PBS) [5] [w/v %] | Storage modulus G′ [6] | Cytotoxicity (Live/Dead cell viability, qualitative) [7] | Fibre diameter ([3]; cryoTEM and negative staining, Example 9) [nm] | Stability in human plasma [8] |
| --- | --- | --- | --- | --- | --- | --- | --- | --- | --- | --- | --- | --- | --- | --- |
| Cc1cc(O)cc(C)c1C[C@H](N)C(=O)N[C@H](CCCNC(=N)N)C(=O)N[C@@H](Cc1ccccc1)C(=O)N[C@@H](Cc1ccccc1)C(=O)N[C@@H](CCC(N)=O)C(=O)N[C@@H](Cc1ccccc1)C(=O)N[C@@H](CCC(N)=O)C(=O)N[C@@H](Cc1ccccc1)C(=O)N[C@@H](CCCCN)C(N)=O [CM-57, Dmt-DArg-Phe-Phe-Gln-Phe*-Gln-Phe-Lys-NH2] (H-[Dmt][dR]FFQFQFK-NH2; N-terminus assumed) | showed the desired sustained release curve | 7.5 | 60 | 2.5 | ~17 | – | – | – | – | – | – | – | – | – |
| NCCCC[C@@H](NC(=O)[C@@H](Cc1ccccc1)NC(=O)[C@@H](CCC(N)=O)NC(=O)[C@@H](Cc1ccccc1)NC(=O)[C@@H](CCC(=O)O)NC(=O)[C@H](N)Cc1ccccc1)C(N)=O [peptide 4, H-DPhe-DGlu-DPhe*-DGln-DPhe-DLys-NH2] (H-[dF][dE][dF][dQ][dF][dK]-NH2) | – | – | – | – | – | ca. 10 nm | remained intact | 24 | 2 | 3 | ca. 1000 Pa | evenly distributed number of red (dead cells) and green (live cells) fluorescent cells | – | – |
| NCCCC[C@@H](N)C(=O)N[C@H](Cc1ccccc1)C(=O)N[C@H](CCC(N)=O)C(=O)N[C@H](Cc1ccccc1)C(=O)N[C@H](CCC(=O)O)C(=O)N[C@H](Cc1ccccc1)C(N)=O [peptide 24, H-DLys-DPhe-DGln-DPhe*-DGlu-DPhe-NH2] (H-[dK][dF][dQ][dF][dE][dF]-NH2) | – | – | – | – | – | – | – | – | – | 2 | – | – | ~5 | remains intact after 25 h of incubation |

— patent US12383628B2 (priority 2016, dated 2025)
